Assay results: US4273923A, “Process for preparing aminoglycoside derivatives” (Shionogi & Co., Ltd., priority 1979, dated 1981)
Values after ≈ are worked out from the molar mass of the structure shown.

Key:
[1] = tested on: Klebsiella pneumoniae Kl-168; experiment: MIC by agar dilution method; conditions: KL168, 20 h, read-out: Minimum Inhibitory Concentration (MIC)
Description: (§1) MIC was determined by the following agar dilution method:
(§2) One loopful of a strain of bacteria to be tested on agar slant was inoculated into a medium for growth of inoculum (Trypto Soy Broth; Eiken Chemical Co.) and incubated at 37° C. overnight.
(§3) (2) Preparation of medium for antibacterial activity test
(§4) A sample solution of aminoglycoside derivative was subjected to serial two-fold dilutions with sterile water. These diluted sample solutions were distributed to the Modified Mueller Hinton Agar medium (Nissui-Seiyaku Co.), mixed gently and allowed to solidify.
(§5) One loopful of the bacterial suspension prepared in (1) was placed on the surface of the medium prepared in (2) containing the aminoglycoside derivative in various concentrations at 10^6 CFU/ml inoculum size.

[2] = tested on: Escherichia coli W-677/JR 762; experiment: MIC by agar dilution method; conditions: W677/JR762, 20 h, read-out: Minimum Inhibitory Concentration (MIC)
Description: as §1, §2, §3, §4, §5

[3] = tested on: Proteus morganii Morg. 96; experiment: MIC by agar dilution method; conditions: Morganella morganii, MORG.96, 20 h, read-out: Minimum Inhibitory Concentration (MIC)
Description: as §1, §2, §3, §4, §5

[4] = tested on: Staphylococcus epidermidis TB-302; experiment: MIC by agar dilution method; format: cell-based; conditions: TB302, innoculum size 10^4 CFU/ml, 37° C., 18 to 20 hours, read-out: Minimum Inhibitory Concentration (MIC)
From the text: (1) Preparation of bacterial suspensions
(3) Determination of MIC values

[5] = compared with kanamycin A; cited from earlier work

| Structure (SMILES) | MIC [1] [µg/mL] | MIC [2] [µg/mL] | MIC [3] [µg/mL] | MIC [4] [µg/mL] | antimicrobial activity [5] |
| --- | --- | --- | --- | --- | --- |
| NC[C@H]1O[C@H](O[C@H]2[C@H](O)[C@@H](O[C@H]3O[C@H](CO)[C@@H](O)[C@H](N)[C@H]3O)[C@H](N)C[C@@H]2N)[C@H](N)C[C@@H]1O [TOB, tobramycin] | 100 (≈ 214 µM) | 50 (≈ 107 µM) | 25 (≈ 53.5 µM) | 3.1 (≈ 6.63 µM) | – |
| NCC1=CC[C@@H](N)[C@@H](O[C@H]2[C@H](O)[C@@H](O[C@H]3O[C@H](CO)[C@@H](O)[C@H](N)[C@H]3O)[C@H](N)C[C@@H]2N)O1 [[A], O-[3-amino-3-deoxy-α-D-glucopyranosyl-(1→6)]-O-[2,6-diamino-2,3,4,6-tetradeoxy-α-D-glycero-hex-4-enopyranosyl-(1→4)]-2-deoxy-D-streptamine] | 50 (≈ 111 µM) | 12.5 (≈ 27.8 µM) | 12.5 (≈ 27.8 µM) | 0.2 (≈ 0.445 µM) | – |
| NCC[C@H](O)C(=O)N[C@@H]1C[C@H](N)[C@@H](O[C@H]2O[C@H](CN)[C@@H](O)[C@H](O)[C@H]2O)[C@H](O)[C@H]1O[C@H]1O[C@H](CO)[C@@H](O)[C@H](N)[C@H]1O [amikacin] | – | – | – | – | more potent than kanamycin A |
